What was measured:
[1] = test system: a variety of test species; assay: Pre-emergence herbicidal activity (glasshouse, sprayed one day after sowing, evaluated after 13 days); type: in vivo; set-up: key: 5=total damage to plant; 0=no damage to plant; conditions: application pre-emergence, rate 1000 g/Ha, scale 0-5
Summary of the method: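 Compounds are applied pre-emergence as an aqueous spray, formulated in 50:50 acetone/water containing 0.5% Tween 20, to pots sown one day earlier. Plants grow in a controlled glasshouse and are scored 13 days later for damage from 0 to 5.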

[2] = test system: a variety of test species; assay: Post-emergence herbicidal activity (glasshouse, sprayed after 8 days cultivation, evaluated after 13 days); type: in vivo; set-up: key: 5=total damage to plant; 0=no damage to plant; conditions: rate 1000 g/Ha, scale 0-5
Summary of the method: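 Damage rating 0 (none) to 5 (total), assessed 13 days after spraying. Plants received the compound in acetone/water 50:50 with 0.5% Tween 20 at 8 days post-sowing, then were kept at 24/16 °C, 14 h photoperiod, 65% RH.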

Row | SMILES | Pre-emergence herbicidal damage score, ABUTH [1] | Pre-emergence herbicidal damage score, ALOMY [1] | Pre-emergence herbicidal damage score, AMARE [1] | Pre-emergence herbicidal damage score, ECHCG [1] | Pre-emergence herbicidal damage score, SETFA [1] | Pre-emergence herbicidal damage score, ZEAMX [1] | ABUTH (Abutilon theophrasti) damage score, application post-emergence [2] | ALOMY (Alopecurus myosuroides) damage score, application post-emergence [2] | AMARE (Amaranthus retroflexus) damage score, application post-emergence [2] | ECHCG (Echinochloa crus-galli) damage score, application post-emergence [2] | SETFA (Setaria faberi) damage score, application post-emergence [2] | ZEAMX (Zea mays) damage score, application post-emergence [2] | melting point [°C]
1 | COC1=C(C)CN(c2noc(C(C)(C)C)c2C#N)C1=O [D11, 5-tert-butyl-3-(4-methoxy-3-methyl-5-oxo-2H-pyrrol-1-yl)isoxazole-4-carbonitrile] | 4 | 4 | 5 | 5 | 5 | 3 | 5 | 5 | 5 | 5 | 5 | 4 | 138 to 140
2 | COC1=C(C)CN(c2cc(C(C)(C)C#N)on2)C1=O [D12] | 5 | 4 | 5 | 5 | 4 | 2 | 4 | 4 | 5 | 5 | 5 | 2 | 103 to 105
3 | CCC(C)(C)c1onc(N2CC(C)=C(OC)C2=O)c1C#N [D13] | 2 | 2 | 5 | 4 | 2 | 2 | 4 | 5 | 5 | 5 | 5 | 2 | 72 to 74
4 | COC1=C(Cl)C(O)N(c2cc(C(C)(C)C)on2)C1=O (stereo not drawn) [E1, 1-(5-tert-butylisoxazol-3-yl)-3-chloro-2-hydroxy-4-methoxy-2H-pyrol-5-one] | 4 | 2 | 5 | 3 | 3 | 2 | 5 | 3 | 5 | 5 | 5 | 0 | 123 to 133
5 | COC1=C(Cl)C(OC(C)=O)N(c2cc(C(C)(C)C)on2)C1=O (stereo not drawn) [E2, [1-(5-tert-butylisoxazol-3-yl)-3-chloro-4-methoxy-5-oxo-2H-pyrrol-2-yl]acetate] | 5 | 3 | 5 | 4 | 3 | 1 | 5 | 3 | 5 | 5 | 5 | 0 | 101 to 107
6 | COC1=C(Cl)CN(c2cc(C(C)(C)C)on2)C1=O [E3] | 2 | 1 | 5 | 3 | 3 | 1 | 1 | 0 | 2 | 2 | 4 | 0 | 94 to 106
7 | COC1=C(C)C(=O)N(c2noc(C(C)C)c2C#N)C1O (stereo not drawn) [G4] | 4 | 3 | 5 | 5 | 5 | 2 | 5 | 5 | 5 | 5 | 5 | 4 | 133 to 135
8 | CCC(C)(C)c1onc(N2C(=O)C(C)=C(OC)C2O)c1C#N (stereo not drawn) [G5] | 5 | 3 | 5 | 5 | 5 | 2 | 5 | 5 | 5 | 5 | 5 | 3 | 122 to 124
9 | COC1=C(C)C(=O)N(c2cc(C(C)(C)C#N)on2)C1O (stereo not drawn) [G6] | 5 | 4 | 5 | 4 | 5 | 4 | 5 | 5 | 5 | 5 | 5 | 5 | 121 to 123
